Reference: patent US20130184316A1, “METHODS FOR DIAGNOSING AND TREATING CONCUSSIVE DISORDERS” (priority 2010, published 2013)

Experiments:
subject with PCS [1] = experiment: Videonystagmography (VNG); format: in vivo, human
Protocol: A single subject, prospective, double blind, placebo controlled trial of 4AP was then conducted in this individual. IRB approvals were obtained from all participating institutions and Subject gave written informed consent for all parts of the study. After a 4-week medication washout period, the Subject was randomly assigned a week's course of placebo, followed by a weeklong medication washout period, followed by another week on 4-AP (10 mg twice daily). Based on the medication half-life, a one week washout period was presumed to be sufficient. Subject and assessors were blinded to treatment allocation.
Measurements conducted at identical times at baseline and on each of the subsequent 3 weeks of the study included: • Balance and mobility assessed by Hi-Mat test (Arch. Phys. Med. Rehabil. 2006, 87(3), 437-442; hereby incorporated by reference in its entirety). • Subjective symptom assessment using the Rivermead Post-Concussion Questionnaire (Clin. Rehabil. 2005, 19(8), 878-887; hereby incorporated by reference in its entirety). • Neuropsychological assessment, consisting of the digit span and cancellation tests from the Wechsler Adult Intelligence Scale, 4th edition (Coalson, D. L., Engi-Raiford, S. Wechsler Adult Intelligence Scale, 4th Ed., in Technical and Interpretive Manual, 4th Ed., San Antonio: Pearson (2008); hereby incorporated by reference in its entirety), the California Verbal Learning Test II (CVLT) (Delis, D. C., Kramer, J. H., Kaplan, E., Ober, B. A. in CVLT-II Manual, San Antonio: The Psychological Corporation (2000); hereby incorporated by reference in its entirety), the Verbal Fluency Test (Connors Continuous Performance Test Computer II Program Version 5 Users Manual, Toronto: Multi-Health Systems, Inc. (2002); hereby incorporated by reference in its entirety), and the Connors Continuous Performance Test (J. Nervous Ment. Dis. 1985, 173(6), 353-357; hereby incorporated by reference in its entirety). • Videonystagmography (VNG) and rotary chair (RC) vestibular testing
Based on the observation of significant central findings on videonystagmography and rater-observed reduction in abnormal movements while on the active medication, the Subject was asked to return for 2 additional rounds of open-label testing, 5 and 9 weeks after conclusion of the formal study. The Subject resumed taking 4AP 10 mg twice daily immediately after the conclusion of the blinded testing.

subject with PCS [2] = experiment: PCS Symptom Cluster Scale, weighted point system; format: in vivo, human; set-up: key to Raw score: Vertigo / Raw score: Persistence or perseveration of proprioceptive sensations (e.g., feeling motion after coming to rest) / Raw score: Diplopia / Raw score: Impairment of gait: 0 never, 1 sometimes, 2 often, 3 always/nearly always present; key to Weighted Score: Vertigo / Weighted Score: Insomnia / Weighted Score: Difficulty in standing for more than 5 minutes: raw frequency score (0-3) multiplied by weight factor; conditions: after therapy with 4-AP
Excerpt: In one embodiment, a point system is presented in which symptoms from each cluster are further assigned a point value. The evaluation should rate the frequency of each symptom over the span of about one week prior to the assessment, according to the following scale: 0—Never present, 1—Sometimes present, 2—Often present, 3—Always or Nearly always present. In this context, occurrence of a symptom from about 1 to 5 times per week would classify as sometimes present, occurrence from about 5 to about 10 times per week would classify as often present, and occurrence about 10 or more times per week would classify as always or nearly always present. The rating number for each item should be recorded as the raw score. Each raw score should then be multiplied by the weight factor to obtain the weighted score.
To achieve this goal, a point system was applied to discrete symptoms within symptom Clusters to specifically define a class of PCS patient that will be likely to benefit from treatment from 4-AP. According to the weighted point system, symptoms from each cluster are further assigned a point value. The frequency of each symptom over the span of about one week prior to the assessment was rated according to the following scale: 0—Never present, 1—Sometimes present, 2—Often present, 3—Always or Nearly always present. The rating number for each item was recorded as the raw score, and the raw score was then multiplied by the weight factor to obtain the weighted score.

[3] = system: multiple sclerosis patients; conditions: orally administered, over a period of days, literature; cited from earlier work
[4] = Cluster A, raw score x weight 1, prior to therapy 3
[5] = Cluster A, raw score x weight 3, prior to therapy 6
[6] = Cluster B, raw score x weight 4, prior to therapy 8
[7] = Cluster C, raw score x weight 2, prior to therapy 2
[8] = Cluster C, raw score x weight 3, prior to therapy 9

Nc1ccncc1 [4-AP, 4-Amino pyridine]
Head left positioning, left beating non-fatiguing nystagmus (subject with PCS [1]; test 4 (Active, 4-AP 10 mg twice daily), tests 1-3: 6, 2, 2): 4 degrees/second
Head left position, left beating non-fatiguing nystagmus (subject with PCS [1]; test 5 (1st open-label round, 4AP 10 mg twice daily)): 2 degrees/second
Delay of onset of left beating nystagmus in left dix hallpike position (subject with PCS [1]; test 6 (2nd open-label round, 4AP 10 mg twice daily), immediate on tests 1-4): 50 s
Down beating nystagmus with head tilted down (subject with PCS [1]; tests 1-4, including active phase): present
Raw score: Difficulty in standing for more than 5 minutes (subject with PCS [2]; Cluster A, prior to therapy 0): 0
Raw score: Difficulty moving body position (e.g., from chair to bed or toilet) (subject with PCS [2]; Cluster A, prior to therapy 1): 0
Raw score: Difficulty maintaining balance while looking over shoulder (subject with PCS [2]; Cluster A, prior to therapy 2): 0
Raw score: Difficulty rising unaided from a sitting position or from sitting on the floor (subject with PCS [2]; Cluster A, prior to therapy 2): 0
Raw score: Impairment of gait (subject with PCS [2]; Cluster A, prior to therapy 2): 0
Raw score: Inability to maintain stability while standing with eyes closed or with feet together (subject with PCS [2]; Cluster A, prior to therapy 2): 1 (Sometimes present)
Raw score: Difficulty conversing while walking (subject with PCS [2]; Cluster A, prior to therapy 3): 1 (Sometimes present)
Raw score: Difficulty tossing objects from hand to hand while walking (subject with PCS [2]; Cluster A, prior to therapy 3): 1 (Sometimes present)
Raw score: Inability to maintain heel-to-toe gait (subject with PCS [2]; Cluster A, prior to therapy 3): 1 (Sometimes present)
Weighted Score: Difficulty moving body position (e.g., from chair to bed or toilet) (subject with PCS [2]; Cluster A, raw score x weight 1, prior to therapy 1): 0
Weighted Score: Difficulty rising unaided from a sitting position or from sitting on the floor (subject with PCS [2]; Cluster A, raw score x weight 1, prior to therapy 2): 0
Weighted Score: Difficulty tossing objects from hand to hand while walking (subject with PCS [2]; [4]): 1
Weighted Score: Inability to maintain heel-to-toe gait (subject with PCS [2]; [4]): 1
Weighted Score: Difficulty in standing for more than 5 minutes (subject with PCS [2]; Cluster A, raw score x weight 2, prior to therapy 0): 0
Weighted Score: Difficulty maintaining balance while looking over shoulder (subject with PCS [2]; Cluster A, raw score x weight 2, prior to therapy 4): 0
Weighted Score: Impairment of gait (subject with PCS [2]; [5]): 0
Weighted Score: Inability to maintain stability while standing with eyes closed or with feet together (subject with PCS [2]; [5]): 3
Weighted Score: Difficulty conversing while walking (subject with PCS [2]; Cluster A, raw score x weight 3, prior to therapy 9): 3
Raw score: Oscillopsia (perception of stationary objects moving) (subject with PCS [2]; Cluster B, prior to therapy 2): 0
Raw score: Persistence or perseveration of proprioceptive sensations (e.g., feeling motion after coming to rest) (subject with PCS [2]; Cluster B, prior to therapy 2): 0
Raw score: Persistent sensation of walking on soft or moving surface (subject with PCS [2]; Cluster B, prior to therapy 2): 0
Raw score: Vertigo (subject with PCS [2]; Cluster B, prior to therapy 2): 0
Raw score: Vestibular seizures (subject with PCS [2]; Cluster B, prior to therapy 2): 0
Raw score: Persistent sensation of being off-balance or tilted (subject with PCS [2]; Cluster B, prior to therapy 3): 1 (Sometimes present)
Weighted Score: Vertigo (subject with PCS [2]; Cluster B, raw score x weight 2, prior to therapy 6): 0
Weighted Score: Persistent sensation of walking on soft or moving surface (subject with PCS [2]; Cluster B, raw score x weight 3, prior to therapy 6): 0
Weighted Score: Oscillopsia (perception of stationary objects moving) (subject with PCS [2]; [6]): 0
Weighted Score: Persistence or perseveration of proprioceptive sensations (e.g., feeling motion after coming to rest) (subject with PCS [2]; [6]): 0
Weighted Score: Persistent sensation of being off-balance or tilted (subject with PCS [2]; Cluster B, raw score x weight 4, prior to therapy 12): 4
Weighted Score: Vestibular seizures (subject with PCS [2]; Cluster B, raw score x weight 5, prior to therapy 10): 0
Raw score: Apathy, listlessness, blunting of affect (subject with PCS [2]; Cluster C, prior to therapy 1): 0
Raw score: Emotional lability or exaggerated emotions (subject with PCS [2]; Cluster C, prior to therapy 1): 0
Raw score: Persistent or frequent irritability (subject with PCS [2]; Cluster C, prior to therapy 1): 0
Raw score: Persisting difficulty with registration or retention of newly presented information in any modality (subject with PCS [2]; Cluster C, prior to therapy 2): 1 (Sometimes present)
Raw score: Inability to perform two simple tasks concurrently (multitasking) (subject with PCS [2]; Cluster C, prior to therapy 3): 1 (Sometimes present)
Raw score: Inability to tolerate distraction (e.g., inability to complete simple task or resume conversation after interruption) (subject with PCS [2]; Cluster C, prior to therapy 3): 1 (Sometimes present)
Raw score: Intolerance of noise, light, or commotion (subject with PCS [2]; Cluster C, prior to therapy 3): 1 (Sometimes present)
Raw score: Slowed speed of mental processing or responding (subject with PCS [2]; Cluster C, prior to therapy 3): 0
Weighted Score: Apathy, listlessness, blunting of affect (subject with PCS [2]; [7]): 0
Weighted Score: Emotional lability or exaggerated emotions (subject with PCS [2]; [7]): 0
Weighted Score: Persistent or frequent irritability (subject with PCS [2]; [7]): 0
Weighted Score: Persisting difficulty with registration or retention of newly presented information in any modality (subject with PCS [2]; Cluster C, raw score x weight 2, prior to therapy 4): 2
Weighted Score: Slowed speed of mental processing or responding (subject with PCS [2]; Cluster C, raw score x weight 2, prior to therapy 6): 0
Weighted Score: Inability to perform two simple tasks concurrently (multitasking) (subject with PCS [2]; [8]): 3
Weighted Score: Inability to tolerate distraction (e.g., inability to complete simple task or resume conversation after interruption) (subject with PCS [2]; [8]): 3
Weighted Score: Intolerance of noise, light, or commotion (subject with PCS [2]; Cluster C, raw score x weight 4, prior to therapy 12): 4
Raw score: Diplopia (subject with PCS [2]; Cluster D, prior to therapy 0): 0
Raw score: Headache (subject with PCS [2]; Cluster D, prior to therapy 1): 2 (Often present)
Raw score: Nystagmus (subject with PCS [2]; Cluster D, prior to therapy 1): 0
Raw score: Anergy, chronic fatigue, hypersomnia (subject with PCS [2]; Cluster D, prior to therapy 2): 0
Raw score: Insomnia (subject with PCS [2]; Cluster D, prior to therapy 2): 2 (Often present)
Raw score: Difficulty in accommodation or focus (subject with PCS [2]; Cluster D, prior to therapy 3): 1 (Sometimes present)
Raw score: Impairment of tracking an object in motion (subject with PCS [2]; Cluster D, prior to therapy 3): 0
Weighted Score: Insomnia (subject with PCS [2]; Cluster D, raw score x weight 1, prior to therapy 2): 2
Weighted Score: Diplopia (subject with PCS [2]; Cluster D, raw score x weight 2, prior to therapy 0): 0
Weighted Score: Headache (subject with PCS [2]; Cluster D, raw score x weight 2, prior to therapy 2): 4
Weighted Score: Anergy, chronic fatigue, hypersomnia (subject with PCS [2]; Cluster D, raw score x weight 3, prior to therapy 6): 0
Weighted Score: Difficulty in accommodation or focus (subject with PCS [2]; Cluster D, raw score x weight 3, prior to therapy 9): 3
Weighted Score: Nystagmus (subject with PCS [2]; Cluster D, raw score x weight 4, prior to therapy 4): 0
Weighted Score: Impairment of tracking an object in motion (subject with PCS [2]; Cluster D, raw score x weight 4, prior to therapy 12): 0
Total weighted score of symptoms (subject with PCS [2]; prior to therapy 165): 33 points
Restoring nerve impulse transmission [3]: mild to moderate improvements
